Where two headings read alike, the source gives them in different places.

This test addresses T1, Androgen Receptor (AR) (Homo sapiens, UniProt P10275, T878A).
T1 construct: endogenous in cells; host or cells: LNCaP
T1 sequence (P10275 1-920 T878A): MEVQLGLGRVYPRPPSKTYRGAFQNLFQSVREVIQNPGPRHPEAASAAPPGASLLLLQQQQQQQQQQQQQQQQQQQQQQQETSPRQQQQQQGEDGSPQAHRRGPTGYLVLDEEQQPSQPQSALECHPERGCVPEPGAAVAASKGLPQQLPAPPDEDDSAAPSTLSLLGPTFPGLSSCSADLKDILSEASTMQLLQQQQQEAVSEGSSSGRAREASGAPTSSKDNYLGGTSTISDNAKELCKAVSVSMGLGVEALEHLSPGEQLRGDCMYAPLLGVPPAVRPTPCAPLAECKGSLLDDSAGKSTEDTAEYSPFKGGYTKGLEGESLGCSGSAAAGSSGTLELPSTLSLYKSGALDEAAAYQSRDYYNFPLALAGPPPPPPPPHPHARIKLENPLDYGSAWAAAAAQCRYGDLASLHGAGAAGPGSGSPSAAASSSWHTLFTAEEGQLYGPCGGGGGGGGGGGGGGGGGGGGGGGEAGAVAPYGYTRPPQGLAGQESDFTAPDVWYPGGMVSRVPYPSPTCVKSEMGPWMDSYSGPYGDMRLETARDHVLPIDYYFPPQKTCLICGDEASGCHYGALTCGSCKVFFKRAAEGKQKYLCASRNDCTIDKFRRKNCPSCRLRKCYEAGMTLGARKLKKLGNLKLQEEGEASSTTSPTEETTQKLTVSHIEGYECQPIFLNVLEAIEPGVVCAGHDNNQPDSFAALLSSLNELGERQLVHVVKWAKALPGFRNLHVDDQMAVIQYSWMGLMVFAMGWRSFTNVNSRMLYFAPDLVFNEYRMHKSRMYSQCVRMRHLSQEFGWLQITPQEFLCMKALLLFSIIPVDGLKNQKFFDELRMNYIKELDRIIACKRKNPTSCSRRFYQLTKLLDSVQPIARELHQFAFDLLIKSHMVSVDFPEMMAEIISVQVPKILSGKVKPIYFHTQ
Put plainly: Measurement of AR protein degradation in LNCaP cells by Western blotting. The test is classed as cell-based. Conditions: read-out: AR degradation in LNCaP cells (%). On the procedure:
The amount of AR protein present in LNCaP or VCaP cells was measured after treating them with the synthesized compound. The amount of AR protein was measured using Western blotting. The protocol for the experiments using LNCaP or VCaP cells was as follows.
[Culture] LNCaP cells were resuspended in RPMI1640 medium + HEPES (Hyclone, SH30255.01), 10% FBS (Hyclone, SV30207.02), and 1% Penicillin-streptomycin (Welgene, LS 202-02). 3 x 10^5 cells/mL were seeded in 12-well plates (1 mL per well) and cultured for 3 days. VCaP cells were resuspended in IMDM MEDIUM (Hyclone, SH30228.01), 20% FBS (Hyclone, SV30207.02), and 1% Penicillin-streptomycin (Welgene, LS 202-02), seeded at 9 x 10^5/mL in 1 mL per 12-well plate, and cultured for 3 days.
[Compound Treatment] 10 µL of 100x stock (e.g., 0.1, 1, 10 µM) compound solution at the final compound treatment concentration (e.g., 0.001, 0.01, 0.1 µM) was added to each well in 1 mL media, and cells were harvested after 20 hours. For DC50 measurement, 100x stock (0.01, 0.1, 1, 10, 100, 1000 µM) compound solutions at the final compound treatment concentration (0.0001, 0.001, 0.01, 0.1, 1, 10 µM) were used.
[Cell lysis] The cell pellet was suspended using 1% SDS lysis buffer (50 mM Tris, 1 mM EDTA, 1% SDS, pH 8.0, 0.5 mM PMSF, 1x Protease/Phosphatase inhibitor Cocktail (Cell Signaling Technology, 5872S)), and sonication (70% AMP, 10 cycles (30 sec ON/59 sec OFF)) was performed. After centrifugation at 4°C and 20,000 g for 20 minutes, the cell lysate was obtained and transferred to a new tube.
[Protein Quantification] A BCA protein assay (SMART™ BCA Protein Assay Kit, iNtRON Biotechnology, 21071) was performed using a 96-well microplate. 5 µL of cell lysate and 5 µL of 1% SDS lysis buffer were added to each well of the 96-well plate, followed by an additional 200 µL of BCA reagent (Reagent A: Reagent B = 50:1). The wells were incubated at 37°C for 30 minutes and cooled to room temperature for 10 minutes. After shaking for 10 seconds, the absorbance was measured at a wavelength of 562 nm. The unknown protein concentration was determined using a BSA standard curve (0, 0.125, 0.25, 0.5, 1, 2 mg/mL). Western blotting samples were prepared by mixing cell lysate, 1% SDS lysis buffer, 4x NuPAGE™ LDS Sample buffer (Invitrogen, NP0008), and 10X NuPAGE™ Sample Reducing Agent (Invitrogen, NP0009) and boiling at 70°C for 10 minutes.
[Electrophoresis] 10 µg of protein sample was loaded into each well of a NuPAGE™ 4 to 12%, Bis-Tris, 1.0 mm Mini Protein Gel, 15-well, 17-well, or 26-well (Invitrogen, NP0323BOX, NP0329BOX, or WG1403BOX) and electrophoresed for 40 minutes using NuPAGE™MES SDS Running Buffer (Invitrogen, NP0002) at 200 V (constant V).
[Transfer] Transfer was performed for 15 or 18 minutes using the electrophoresed gel and the Trans-Blot® Turbo™ Transfer Starter System (Bio-RAD, #17001918, Mini Nitrocellulose) at 1.3 A (constant A) and 25 V (limit V). To confirm protein transfer, 15 mL of Ponceau S solution (Sigma, P7170-1L) was used to stain for 1 minute, and then washed to check the degree of transfer.
[Blocking] The membrane for AR and GAPDH detection was blocked with 5% skim milk/0.2% TBST (Skim milk: BD, 232100/ 20X TBS: Biosesang, TR2008-100-00/ 10% Tween 20 Solution: Bio-RAD, #161-0781) for 45 minutes.
[Antibodies and Detection] Primary AR antibody (Androgen Receptor: CST, 5153S) was mixed with 5% skim milk/0.2% TBST at a ratio of 1:1,000 and reacted at room temperature for 3 hours or at 4°C overnight. Primary GAPDH antibody (CST, 2118S) was mixed with 5% skim milk/0.2% TBST at a ratio of 1:2,000 and reacted at room temperature for 3 hours or at 4°C overnight. Afterwards, TBST (0.2% Tween 20) was used for washing three times every 5 minutes. Secondary antibody to AR antibody, Anti-rabbit IgG, HRP-linked Antibody (CST, 7074S), was mixed with 5% skim milk/0.2% TBST at a ratio of 1:5,000 and reacted at room temperature for 45 minutes. […]
(Immunoblotting shows a protein as a band on a membrane.)

Consider `COc1cc(N2CCC(C(=O)Nc3ccc(OC4CCN(CC5CCN(c6ccc(NC7CCC(=O)NC7=O)cc6F)CC5)CC4)nn3)CC2)ccc1C#N` (stereo not shown) [Example 16, 1-(4-cyano-3-methoxyphenyl)-N-(6-((1-((1-(4-((2,6-dioxopiperidin-3-yl)amino)-2-fluorophenyl)piperidin-4-yl)methyl)piperidin-4-yl)oxy)pyridazin-3-yl)piperidine-4-carboxamide], for which the Dmax at 0.01 µM (10 nM compound, 20 hours, LNCaP cells) was determined as 93%. Moreover, the Dmax at 0.1 µM (100 nM compound, 20 hours, LNCaP cells) turned out to be 98%.

Take `N#Cc1ccc(N2CCC(C(=O)Nc3ccc(OC4CCN(CC5CCN(c6ccc(NC7CCC(=O)NC7=O)cc6Cl)CC5)CC4)cn3)CC2)cc1C(F)(F)F` (stereo not shown) [Example 17, N-(5-((1-((1-(2-chloro-4-((2,6-dioxopiperidin-3-yl)amino)phenyl)piperidin-4-yl)methyl)piperidin-4-yl)oxy)pyridin-2-yl)-1-(4-cyano-3-(trifluoromethyl)phenyl)piperidine-4-carboxamide]: under “LNCaP, 20 h”, the Dmax at 0.01 µM was determined as 77% and the Dmax at 0.1 µM is 99%.

The record behind these values is patent publication EP4772505A1, “COMPOUND FOR DEGRADING ANDROGEN RECEPTOR AND MEDICAL USE THEREOF” (Ubix Therapeutics, Inc., priority 2023, dated 2025).
